Experimental data taken from patent publication US20070270462A1, “8-hydroxyquinoline compounds for treating a polyglutamine (polyQ)-expansion disease” (priority 2005, published 2007).

Columns and labels:
Htt exon1-Q103-egfp = experiment: Pulse-chase assay of Htt exon1-Q103-egfp turnover; type: cell-based; conditions: HEK293 cells, 4 μM CQ
Description: HEK293 cells at 90% confluence on 100 mm plates coated with poly-D-lysine (0.1 μg/μl) were transfected for 4 hr in Opti-MEM medium before replacement of the medium with MEM supplemented with 10% v/v FBS. After another 5 hr incubation, cells were trypsinized and replated in two wells of a 6-well plate, then incubated for another 14 hr at 37° C. The medium was replaced with methionine-free MEM medium supplemented with 5% v/v FBS, and cells incubated for 1.5 hr with 4 μM of CQ or DMSO vehicle added during the last 30 min of incubation. One mCi of Smethionine (Amersham Biosciences, Piscataway, N.J.) in 12 ml of methionine-free MEM was prepared as a pulse stock medium. Cells were pulsed for 10 min by replacing the medium with 1 ml of the pulse stock medium. At different time points, cells were washed twice with ice-cold PBS and lysed in 1 ml of IP lysis buffer (50 mM Tris-HCl, pH 7.5, 150 mM NaCl, 1% v/v NP-40, 0.5% v/v sodium deoxycholate, 1 tab mini-complete protease inhibitor/10 ml buffer). Cells were harvested by scraping, placed in 1.5 ml microcentrifuge tube, and lysed with constant agitation at 4° C. for at least 30 min before immunoprecipitation of the Htt^exon1-Q103-egfp protein using anti-polyglutamine antibody and protein G agarose beads (Roche, Indianapolis, Ind., USA). Assays were performed at least three times. […]

R6/2 mice [1] = experiment: Lifespan (survival) of R6/2 mice; type: in vivo, mouse; conditions: oral CQ 30 mg/kg/day
Description: (§1) A colony of transgenic mice strain R6/2 that is heterozygous for htt exon1 (containing 145 CAG repeats) was maintained, with founders originating and available from The Jackson Laboratory (Bar Harbor, Me., USA). Male transgenic R6/2 mice were bred with background strain (B6CBAFI/J) females. Genotyping was done according to Hockly et al, Brain Res Bull 61, 469-479, 2003. CQ in water was orally administered to mice at 30 mg/kg/day starting at 3 weeks of age and continued until the mice were deceased or sacrificed for tissues. Littermate R6/2 mice were gavaged with water vehicle alone. At the end of CQ treatment mice were anesthetized and transcardially perfused with PBS followed by 4% v/v paraformaldehyde. Blood glucose levels were determined after at least 8 hrs of fasting in 11-week old mice (n=6 for wild-type, n=4 for vehicle-treated R6/2, n=6 for CQ-treated R6/2 littermates) using a 2300 STAT Plus glucose analyzer (YSI, Yellowsonte, Ohio, USA). Fasting blood insulin levels in animals fasted for 8 hrs were measured using an Ultra Sensitive Rat Insulin ELISA Kit (Crystal Chem, Inc., Downers Grove, Ill., USA) according to manufacturer's instructions. […]

Htt exon1-Q103-egfp mRNA = experiment: Northern analysis of Htt exon1-Q103-egfp mRNA; type: cell-based; conditions: Northern analysis after 48 hrs of transfection
Description: Trizol reagent (Invitrogen, Carlsbad, Calif.) was used to isolate total RNA. Ten μg of total RNA was electrophoresed through 1.25% w/v agarose gel and transferred onto Hybond N+membrane. The membrane was baked in an 80° C. oven for 15 min and UV-crosslinked. Exon 1 of htt containing 103 CAA/CAG-repeats was used as a probe for northern blot detection according to AlkPhos Direct Labeling and Detection System (Amersham Biosciences, Piscataway, N.J.). One hundred ng of the probe was hybridized to the membrane in a 60° C. rotating hybridization oven overnight. The membrane was scanned using the Typhoon 9410 digital scanner (Amersham Biosciences, Piscataway, N.J.) to yield the signal image. The experiment was performed three times and band intensities were averaged.
In examining potential mechanisms for the effects of CQ on Htt accumulation, we considered the possibilities that CQ might act to inhibit Htt aggregation or directly influence Htt synthesis or degradation. […] Therefore, we focused on the aspects of Htt synthesis and turnover. To determine whether CQ might down-regulate polyQ-Htt expression at the transcriptional level, we examined the amount of Htt^exon1-Q103-egfp mRNA present after 48 hrs of transfection by Northern analysis. […]

R6/2 mice [2] = experiment: Body weight of R6/2 mice; type: in vivo, mouse; conditions: 10th and 11th weeks, oral CQ 30 mg/kg/day
Description: as §1

## Oc1c(I)cc(Cl)c2cccnc12 [CQ, 5-chloro-7-iodo-8-hydroxy-quinoline]
Htt exon1-Q103-egfp
  rates of Q103-egfp degradation in the presence of CQ: No significant differences
R6/2 mice [1]
  average lifespan: 92 days
  increase in longevity over the littermate control group: 20%
Htt exon1-Q103-egfp mRNA
  effect on Htt exon1-Q103-egfp mRNA levels: no significant effect
R6/2 mice [2]
  body weight: significantly greater than untreated animals
